The values below come from patent US9156790B2, “Anticancer P21-activated kinase inhibitors” (Ohio State Innovation Foundation, priority 2013, dated 2015).

SMILES strings stand for the structures.

The subject of one assay is FTC133 cells. In words: MTT cell viability assay, FTC133. Format: cell-based, Human. Particulars: Homo sapiens, FTC-133, 72-hours of exposure, 1% FBS, mean±standard deviation (n=3), read-out: IC50 for reducing viability of FTC133 cells versus DMSO control. An excerpt: (§1) Human thyroid cancer BCPAP, TPC1, and FTC133 cell lines were the generous gifts of Drs. Rebecca Schweppe and Bryan Haugen (University of Colorado Denver) (Schweppe et al., The Journal of clinical endocrinology and metabolism 83:4331-4341 (2008)) with permission from the following originating laboratories: BCPAP—Dr. Fabien, Centre Hospitalier Lyon-Sud, France (Fabien et al., Cancer 73:2206-2212 (1994)); TPC1—Dr. Sato, Kanazawa University, Japan (Tanaka et al., Virology 161:62-411 (1987)); and FTC133—Dr. Goretzki, University of Leipzig, Germany (Goretzki et al., Recent Results Cancer Res 118:48-63 (1990)). The obtained cell lines were confirmed for identity by DNA fingerprinting. BCPAP was grown in RPMI 1640 medium (Life Technologies Co., Carlsbad, Calif.) while FTC133 and TPC1 were grown in DMEM (Life Technologies Co.), both supplemented with 10% fetal bovine serum (FBS) and NEAA unless as noted for experiments.
(§2) The effect of OSU-03012 and its derivatives on cell viability was assessed by using the 3-(4,5-dimethylthiazol-2-yl)-2,5-diphenyl-2H-tetrazolium bromide (MTT) assay. Three replicates were performed in each individual experiment, and experiments were repeated at least three separate times. Cells were grown in 96-well plates for 24 hours and were exposed to various concentrations of drugs dissolved in DMSO (final concentration 0.1%) in RPMI 1640 or DMEM containing 1% FBS for 72 hours. 10 μL of 0.5 mg/ml MTT was added to each well and cells were incubated in CO2 at 37° C. for 2 hours. Supernatants were removed from the wells, the reduced MTT dye was solubilized in 100 μL of solution C (12 ml of 1N HCl in 300 mL of isopropanol), and absorbance at 570 nm was determined on a microplate reader.
(§3) We assessed the ability of the compounds to reduce cell viability in vitro by MTT assay after 72 hours of continuous exposure. Results are shown in Table 1 and are depicted as the IC50 vs. simultaneously performed DMSO control.
(§4) ^aThe reported IC50 values are concentrations at which BCPAP, FTC133 and TPC1 cell viability by MTT assays 50% of DMSO control after 72-hours of exposure. Data are presented as mean±standard deviation (n=3). PAK and PDK1 Selectivity In Vivo
(In general: Formazan colour is commonly taken as a measure of viable cells.)

A further assay relates to BCPAP cells. In words: MTT cell viability assay, BCPAP. The settings on record: Homo sapiens, BCPAP, 72-hours of exposure, 1% FBS, mean±standard deviation (n=3), read-out: IC50 for reducing viability of BCPAP cells versus DMSO control. The assay is classed as cell-based, Human.
Excerpt: as §1, §2, §3, §4

In assay [1] the test system is PAK phosphorylation of Vimentin (Ser56). In words: Western blot, PAK phosphorylation of Vimentin (Ser56) in thyroid cancer cells. Format: cell-based, Human. Particulars: 7.5 μM, 6 h, BCPAP, FTC133 and TPC1 cells (FIG. 3). On the procedure: (§5) Protein isolation and Western blot were performed as previously described. Ringel et al., Cancer research 61:6105-6111 (2001). 25 μg of total cell lysates were loaded into 4-12% SDS-PAGE, electrophoresed, and transferred to nitrocellulose membranes for immunoblotting. Primary antibodies against Akt (#9272), phospho-Akt (Thr308) (#2965), p44/42 MAPK (Erk1/2) (#9107), phospho-p44/42 MAPK (Erk1/2) (Thr202/Tyr204) (#4377) and GAPDH (#2118) were obtained from Cell Signaling Technology (Danvers, Mass., USA). Antibody against Vimentin (V6630) and phospho-Ser55 Vimentin were from Sigma-Aldrich, Inc. (St. Louis, Mo.) and MBL Co. (Nagoya, Japan), respectively. Antibodies against total and phosphorylated S6 were from Cell Signaling Technology®.
(§6) The ability of the compounds with in vitro anti-PAK1 activity was assessed for activity […] in thyroid cancer cells. In addition, because the compounds are based on the structure of a PDK1 inhibitor, PDK1 inhibitory activity was also assessed. Inhibitory activity in cells was estimated using Western blot with primary antibodies directed against kinase-specific phosphorylation sites; serine 56 of vimentin for PAK and threonine 308 of Akt for PDK1. BCPAP, TPC1, and FTC133 thyroid cancer cells were utilized. BCPAP and TPC1 are derived from PTC and have BRAF V600E and RET/PTC1 rearrangements, respectively. FTC133 is derived from a follicular thyroid cancer with an inactivating mutation of PTEN. Similar to the kinase screening assay, cells were treated with the six compounds or OSU-03012 at 7.5 μM concentration or with DMSO vehicle alone. The results were not entirely consistent across the three cell lines presumably related to mutation status or other factors. OSU-03012 inhibited both PDK1 and PAK-mediated phosphorylation of targets as predicted.
(§7) The dose-dependency of compounds 4 and 15 was next assessed (FIG. 4). […] Due to the important role that ERK activation plays in thyroid cancer, and its signaling activation by thyroid oncogenes, the effects of the compounds on ERK phosphorylation was also assessed.
Background: Immunoblotting shows a protein as a band on a membrane.

For a further assay, the target named is T1, Recombinant active PAK 1 (Homo sapiens, UniProt Q13153).
T1 construct: purchased Calbiochem
T1 sequence (Q13153 whole entry): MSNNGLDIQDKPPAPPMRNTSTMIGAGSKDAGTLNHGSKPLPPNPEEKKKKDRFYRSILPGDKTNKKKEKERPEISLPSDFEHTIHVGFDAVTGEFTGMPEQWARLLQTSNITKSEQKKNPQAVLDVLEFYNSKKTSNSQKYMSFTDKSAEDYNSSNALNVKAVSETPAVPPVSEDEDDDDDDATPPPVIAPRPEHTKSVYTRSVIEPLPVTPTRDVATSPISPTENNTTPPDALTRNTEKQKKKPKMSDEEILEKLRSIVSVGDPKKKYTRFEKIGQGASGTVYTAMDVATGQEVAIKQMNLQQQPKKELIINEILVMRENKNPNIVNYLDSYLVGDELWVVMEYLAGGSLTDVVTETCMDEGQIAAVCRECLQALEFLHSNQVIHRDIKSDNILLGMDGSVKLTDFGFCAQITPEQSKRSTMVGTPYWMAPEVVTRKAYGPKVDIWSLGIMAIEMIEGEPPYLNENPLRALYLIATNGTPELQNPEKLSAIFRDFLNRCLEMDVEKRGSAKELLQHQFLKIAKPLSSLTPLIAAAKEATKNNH
Put plainly: In vitro PAK1 kinase assay (MBP substrate, 32P-ATP). Format: biochemical. On the procedure:
Recombinant active PAK 1 (Calbiochem) was incubated with selected derivatives or 0.1% DMSO in the presence or absence of MBP (Sigma) in a 1× kinase buffer (Cell Signaling). The addition of [γ-32P]-ATP (2.5 μCi/reaction) (Perkin Elmer) started the reaction, which was incubated at 30° C. for 30 minutes. The reaction was terminated by the addition of EDTA. Results were obtained after visualization of ^32P-labeled MBP after separation on 12% polyacrylamide gels and autoradiography. For the Lineweaver-Burk plot analysis, the ratio of radioactive ATP to nonradioactive ATP was not altered. The PAK1 kinase activities are the means of three independent experiments quantified using P81 phosphocellulose paper by a scintillation counter after three washes with 0.75% phosphoric acid.
Screening of OSU-03012 Derivatives to Identify PAK1 Inhibitors. The 17 derivatives along with OSU-03012, each at 7.5 μM, were screened for their ability to inhibit PAK1 activity by in vitro PAK1 kinase assay. The dose was chosen (above the IC50 of OSU-03012) to allow OSU-03012 to serve as a robust positive control. The PAK1 kinase assay was performed using recombinant active PAK1 with myelin basic protein as substrate in the presence of 2.5 μM ATP and 7.5 μM of respective inhibitors.
To further investigate these six compounds, dose-response studies on PAK1 activity were performed by using PAK1 kinase assay. […] We next questioned whether compounds 4 or 15 inhibited PAK1 in an ATP competitive manner as their parent compound OSU-03012.

The test system of the next assay is TPC1 cells. Put plainly: MTT cell viability assay, TPC1. The assay is classed as cell-based, Human. Particulars: Homo sapiens, TPC1, 72-hours of exposure, 1% FBS, mean±standard deviation (n=3), read-out: IC50 for reducing viability of TPC1 cells versus DMSO control.
Excerpt: as §1, §2, §3, §4

Assay [2] has as its system PDK1 phosphorylation of Akt (Thr308). In words: Western blot, PDK1 phosphorylation of Akt (Thr308) in thyroid cancer cells. The assay is classed as cell-based, Human. Particulars: 7.5 μM, 6 h, BCPAP, FTC133 and TPC1 cells (FIG. 3). As for the experimental part: as §5, §6, §7
Another assay has as its target PAK (Homo sapiens, UniProt Q13153). The settings on record: Porchia et al., Mol Pharmacol 72:1124-1131 (2007); cited from earlier work.

Chain of PAK (Q13153 whole entry): as above

Regarding `NCCC(=O)Nc1ccc(-n2nc(CO)cc2-c2ccc3ccc4ccccc4c3c2)cc1` [Compound 11, 3-Amino-N-(4-(3-(hydroxymethyl)-5-(phenanthren-3-yl)-1H-pyrazol-1-yl)phenyl)-propanamide], the IC50 amounted to 3.94 ± 2.29 µM in the assay on FTC133 cells, 4.5 ± 1.04 µM with BCPAP cells and 4.98 ± 1.94 µM in the assay with TPC1 cells. In assay [1], the “PAK phosphorylation of vimentin (Western blot)” value was “did not significantly alter PAK phosphorylation of vimentin”. Besides, the “Inhibition of PAK1 kinase activity in initial screen” value on Recombinant active PAK 1 (7.5 μM inhibitor, 2.5 μM ATP, myelin basic protein substrate (FIG. 2A)) is listed as “inhibited PAK1 kinase activity”. Also, at Recombinant active PAK 1 (in vitro kinase assay, comparison between compounds / with OSU-03012), the “Relative PAK1 inhibitory potency (comparison in words)” value is recorded as “more potent”. The “PDK1 phosphorylation of Akt (Thr308) (Western blot)” value in assay [2] is on record as “markedly inhibit PDK1 phosphorylation of Akt”.
As to `NCC(=O)Nc1ccc(-n2nc(C(F)(F)F)cc2-c2ccc3c(ccc4ccccc43)c2)cc1` [OSU-03012, reference compound], the IC50 with FTC133 cells is 2.93 ± 1.87 µM; in the assay on BCPAP cells, 2.93 ± 1.05 µM; on Recombinant active PAK 1 (in vitro kinase assay, read-out: IC50 versus PAK, in vitro (bound implied by chosen test concentration)), below 7.5 µM; in the assay with TPC1 cells, 2.8 ± 1.33 µM. For the same compound, in assay [1], the “PAK phosphorylation of vimentin (Western blot)” value is recorded as “inhibited”. Besides, the “PAK inhibitory activity (previously reported)” value on PAK is recorded as “low micromolar concentrations”. In addition, in assay [2], the “PDK1 phosphorylation of Akt (Thr308) (Western blot)” value is “inhibited”.
